# Source: paper PMC9525273 (Nature Communications, 2022)
# Values joined by “and” are separate entries in the source; they are usually repeats but may differ in a detail not shown here. Identical values can stand only once. Like-named read-outs stand apart in the source and are kept apart here.
# Biological target: T1, TgATP4^WT (membranes from T. gondii tachyzoites) (Toxoplasma gondii, UniProt B9QMJ0)
# T1 sequence (B9QMJ0 1-1338): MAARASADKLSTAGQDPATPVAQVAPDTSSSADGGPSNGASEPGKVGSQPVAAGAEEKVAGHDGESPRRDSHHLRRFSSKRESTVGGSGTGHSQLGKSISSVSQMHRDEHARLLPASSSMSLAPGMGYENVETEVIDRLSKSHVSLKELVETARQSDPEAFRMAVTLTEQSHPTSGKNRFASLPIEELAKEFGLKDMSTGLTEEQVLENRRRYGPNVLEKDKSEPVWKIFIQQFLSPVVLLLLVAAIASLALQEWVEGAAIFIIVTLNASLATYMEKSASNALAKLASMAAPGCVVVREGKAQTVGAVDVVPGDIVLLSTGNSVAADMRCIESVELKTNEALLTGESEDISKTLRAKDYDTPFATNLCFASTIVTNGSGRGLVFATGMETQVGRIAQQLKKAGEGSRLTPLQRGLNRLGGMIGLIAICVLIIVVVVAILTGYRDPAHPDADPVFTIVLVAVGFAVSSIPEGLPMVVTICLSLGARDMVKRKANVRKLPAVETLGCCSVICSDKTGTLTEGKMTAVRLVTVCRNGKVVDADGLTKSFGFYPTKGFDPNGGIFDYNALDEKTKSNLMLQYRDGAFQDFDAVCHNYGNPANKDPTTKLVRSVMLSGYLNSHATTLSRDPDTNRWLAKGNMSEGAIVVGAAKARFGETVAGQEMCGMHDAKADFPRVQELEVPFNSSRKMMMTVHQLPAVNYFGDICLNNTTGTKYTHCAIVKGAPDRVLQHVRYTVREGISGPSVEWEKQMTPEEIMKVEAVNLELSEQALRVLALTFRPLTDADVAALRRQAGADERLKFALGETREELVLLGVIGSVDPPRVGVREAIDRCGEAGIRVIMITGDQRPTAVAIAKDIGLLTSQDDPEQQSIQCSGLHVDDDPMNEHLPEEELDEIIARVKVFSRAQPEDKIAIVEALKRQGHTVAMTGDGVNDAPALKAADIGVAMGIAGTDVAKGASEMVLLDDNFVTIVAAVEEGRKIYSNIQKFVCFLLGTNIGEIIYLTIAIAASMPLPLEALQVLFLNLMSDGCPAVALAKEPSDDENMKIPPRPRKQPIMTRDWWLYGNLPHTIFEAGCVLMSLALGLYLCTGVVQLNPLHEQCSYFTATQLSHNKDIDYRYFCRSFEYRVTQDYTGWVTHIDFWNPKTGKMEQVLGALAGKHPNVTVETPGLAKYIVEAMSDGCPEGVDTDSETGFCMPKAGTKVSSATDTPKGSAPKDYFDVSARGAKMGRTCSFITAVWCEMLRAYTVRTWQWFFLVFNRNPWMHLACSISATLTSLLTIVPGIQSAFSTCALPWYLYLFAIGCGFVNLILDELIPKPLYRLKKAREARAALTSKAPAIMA
# Test: Membrane ATPase assay, ATP4-associated (Na+-dependent) ATPase activity
# Format: biochemical
# Parameters: IC50 for inhibition of ATP4-associated ATPase activity, MEAN: unit: nM
# Procedure: Membranes from isolated P. falciparum or extracellular T. gondii parasites were prepared by lysing parasites in ice-cold deionized water containing a 1:500 dilution of Protease Inhibitor Cocktail Set III (Merck Millipore), then washing the membrane preparation three times in ice-cold deionized water (with protease inhibitors present for the first two washes)[15]. Protein concentrations in the membrane preparations were measured using a Bradford assay. The PiColorLock Gold Phosphate Detection System (Innova Biosciences) was used to measure the production of Pi from hydrolysis of ATP[15]. Membrane preparations were diluted in either a high Na^+ solution (yielding final conditions in the reactions of 150 mM NaCl, 20 mM KCl, 2 mM MgCl2, 50 mM Tris, pH 7.2) or a Na^+-free solution (yielding final conditions of 150 mM choline chloride, 20 mM KCl, 2 mM MgCl2, 50 mM Tris, pH 7.2) to achieve a total protein concentration of 50 μg/mL. […] The reactions were performed at 37 °C, and were initiated by the addition of 1 mM ATP (Na2ATP۰3H2O; MP Biomedicals) and terminated 10 min later by adding 100 μL of reaction mixture (in duplicate) to 25 μL “Gold mix” in a 96-well plate. “Stabiliser” was added 3 min later, and the plates incubated at room temperature in the dark for 60 min before measuring absorbance at 635 nm. Background values (averaged from wells containing all components, but to which ATP was not added until after the membrane was exposed to Gold mix) were subtracted from the data. For each treatment, the ATPase activity associated with the (Na^+-dependent) PfATP4 and TgATP4 proteins was calculated by subtracting data obtained in the low Na^+ condition (containing only the 2 mM Na^+ introduced on addition of 1 mM Na2ATP) from that obtained in the high Na^+ condition.
compound,measurement,setting,value
N#Cc1cc(NC(=O)[C@H]2c3ccccc3C(=O)N(CC(F)(F)F)[C@@H]2c2cccnc2)ccc1F [(+)-SJ733],"IC50 for inhibition of ATP4-associated ATPase activity, MEAN","WT T. gondii membranes, MEAN, source data of Table 1 (nM there)",17.77
same,remaining activity at 0.000122 µM,"WT T. gondii, [(+)-SJ733] 0.122 nM, MEAN, read-out: TgATP4-associated ATPase activity (% of control)",105%
same,TgATP4-associated ATPase activity (% of control),"WT T. gondii, [(+)-SJ733] 0.122 nM, single experiments, 0.000122 µM",99.5 % of control and 113.7 % of control
same,remaining activity at 0.000122 µM,"WT T. gondii, [(+)-SJ733] 0.122 nM, single experiments, read-out: TgATP4-associated ATPase activity (% of control)",102%
same,remaining activity at 0.000244 µM,"WT T. gondii, [(+)-SJ733] 0.244 nM, MEAN, read-out: TgATP4-associated ATPase activity (% of control)",104%
same,TgATP4-associated ATPase activity (% of control),"WT T. gondii, [(+)-SJ733] 0.244 nM, single experiments, 0.000244 µM",103.7 % of control and 108.4 % of control
same,remaining activity at 0.000244 µM,"WT T. gondii, [(+)-SJ733] 0.244 nM, single experiments, read-out: TgATP4-associated ATPase activity (% of control)",99.9%
same,remaining activity at 0.0005 µM,"WT T. gondii, [(+)-SJ733] 0.5 nM, MEAN, read-out: TgATP4-associated ATPase activity (% of control)",93.6%
same,TgATP4-associated ATPase activity (% of control),"WT T. gondii, [(+)-SJ733] 0.5 nM, single experiments, 0.0005 µM",96.1 % of control and 95.1 % of control
same,remaining activity at 0.0005 µM,"WT T. gondii, [(+)-SJ733] 0.5 nM, single experiments, read-out: TgATP4-associated ATPase activity (% of control)",89.6%
same,remaining activity at 0.001 µM,"WT T. gondii, [(+)-SJ733] 1.0 nM, MEAN, read-out: TgATP4-associated ATPase activity (% of control)",102%
same,TgATP4-associated ATPase activity (% of control),"WT T. gondii, [(+)-SJ733] 1.0 nM, single experiments, 0.001 µM",96.8 % of control and 112.7 % of control
same,remaining activity at 0.001 µM,"WT T. gondii, [(+)-SJ733] 1.0 nM, single experiments, read-out: TgATP4-associated ATPase activity (% of control)",94.9%
same,remaining activity at 0.002 µM,"WT T. gondii, [(+)-SJ733] 2.0 nM, MEAN, read-out: TgATP4-associated ATPase activity (% of control)",95.7%
same,TgATP4-associated ATPase activity (% of control),"WT T. gondii, [(+)-SJ733] 2.0 nM, single experiments, 0.002 µM",71.9 % of control and 96.8 % of control and 118.4 % of control
same,remaining activity at 0.0039 µM,"WT T. gondii, [(+)-SJ733] 3.9 nM, MEAN, read-out: TgATP4-associated ATPase activity (% of control)",90.6%
same,TgATP4-associated ATPase activity (% of control),"WT T. gondii, [(+)-SJ733] 3.9 nM, single experiments, 0.0039 µM",69.6 % of control and 88.2 % of control and 113.9 % of control
same,remaining activity at 0.0078 µM,"WT T. gondii, [(+)-SJ733] 7.8 nM, MEAN, read-out: TgATP4-associated ATPase activity (% of control)",78.4%
same,TgATP4-associated ATPase activity (% of control),"WT T. gondii, [(+)-SJ733] 7.8 nM, single experiments, 0.0078 µM",63.9 % of control and 63.6 % of control and 107.7 % of control
same,remaining activity at 0.0156 µM,"WT T. gondii, [(+)-SJ733] 15.6 nM, MEAN, read-out: TgATP4-associated ATPase activity (% of control)",52.5%
same,remaining activity at 0.0313 µM,"WT T. gondii, [(+)-SJ733] 31.3 nM, MEAN, read-out: TgATP4-associated ATPase activity (% of control)",42.7%
same,remaining activity at 0.0625 µM,"WT T. gondii, [(+)-SJ733] 62.5 nM, MEAN, read-out: TgATP4-associated ATPase activity (% of control)",31.7%
same,remaining activity at 0.25 µM,"WT T. gondii, [(+)-SJ733] 250 nM, MEAN, read-out: TgATP4-associated ATPase activity (% of control)",20.9%
same,remaining activity at 0.5 µM,"WT T. gondii, [(+)-SJ733] 500 nM, MEAN, read-out: TgATP4-associated ATPase activity (% of control)",14.7%
same,IC50 for ATP4-associated ATPase activity,"membranes from WT T. gondii (TgATP4WT), mean ± SEM",17.8 ± 9.2 (3) nM
